Experimental findings from PubChem BioAssay AID1963597 (National Center for Advancing Translational Sciences (NCATS), 2024) are described below.

Molecules are shown by their SMILES.

In this series the test system is human liver microsomes, metabolic stability half-life. Briefly: NCATS Human Liver Microsomal (HLM) Stability Profiling. As to conditions: higher = more stable; screened at 1 µM (by protocol). The essentials: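 Half-life derived from parent loss over 0–60 min (0, 5, 10, 15, 30, 60 min) at 37 °C. Incubations: 0.5 mg/mL microsomes, 1 µM test article, NADPH regeneration, pH 7.4 phosphate; quenched in acetonitrile containing albendazole, analysed by MS.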
Consider `CCOC(=O)c1sc(NC(=O)c2c(-c3ccccc3)c(-c3ccccc3)nn(C)c2=O)nc1C`, for which the half-life was greater than 120 min. As to `C[C@]12CCC(=O)C=C1CC[C@@H]1[C@@H]2CC[C@@]2(C)[C@H]1CC[C@]2(O)C(=O)CO`, the half-life came out at 62.1 min. Turning to `Cc1cccc(N(C)C(=S)Oc2ccc3c(c2)CCC3)c1`, the half-life was found to be 1.94 min. Then `CN/C(=C\[N+](=O)[O-])NCCSCc1csc(CN(C)C)n1`, with greater than 120 min. Then `CCCCCCCCCCCCCCCCCCN(C)C`, with greater than 120 min; and `CC(C)(C)c1ccc(C(=O)Nc2cc(Cl)c(Br)cc2C(=O)O)cc1`, with 6.17 min. The compound `NS(=O)(=O)c1ccc(Cc2c(-c3cccc(-c4ccccc4)c3)nn(-c3nc(C(=O)O)cs3)c2CC2CC2)cc1` gave a half-life of 83.6 min. With `CN1C(=O)C(Cc2ccc3ccccc3c2)N=C(c2ccc(O)cc2)c2cc(Cl)ccc21` (configuration not stated) the figure was greater than 120 min; with `CC(C)(O)c1ccc2c(c1)ncn2-c1cccc(-c2ccccc2C#N)c1`, greater than 120 min. Then `COc1ccc(CCO[C@@H]2CCCC[C@H]2N2CC[C@@H](O)C2)cc1OC`, with greater than 120 min. `C=CCOC1=C(OCC(O)CNC(C)C)CCCC1` (configuration not stated) showed a half-life greater than 120 min. `CCCCCn1cc(C(=O)Oc2cccc3cccnc23)c2ccccc21` showed a half-life of 4.97 min. With `CC1(C)C(=O)N(c2ccc(C#N)c(C(F)(F)F)c2)C(=S)N1c1ccc(C(N)=O)c(F)c1` the figure was greater than 120 min; with `CN(C)Cc1c(C(=O)NCCOc2ccc(C(=O)NO)cc2)oc2ccccc12`, greater than 120 min. Then `COCCCN1CCC(NC(=O)c2cc(Cl)c(N)c3c2OCC3)CC1`, with greater than 120 min. With `CN(C)c1cccc(Oc2cnc(Nc3cccc(O)c3)nc2)c1` the figure was 21.9 min; with `CN(C)N(C)C(=O)[C@@]1(Cc2ccccc2)CCCN(C(=O)[C@@H](Cc2c[nH]c3ccccc23)NC(=O)C(C)(C)N)C1`, 12.6 min. Turning to `NC(=Nc1ccccc1)Nc1ccccc1`, the half-life is greater than 120 min. With `Cc1coc2c1C(=O)C(=O)c1c-2ccc2c1CCCC2(C)C` the figure was 5.39 min; with `CC(=O)C1=C(c2ccc(Cl)c(Cl)c2)N(C(C)=O)n2cnnc2S1`, 4.52 min; with `CN(C)CCN1C(=O)c2ccccc2N(C)c2ccccc21`, greater than 120 min. Then `CC(=O)Nc1ccc(OC[C@@H](O)CNC(C)C)cc1`, with greater than 120 min; and `N#C/C(=C1\SCC(c2ccccc2Cl)S1)n1ccnc1` (configuration not stated), with 86.2 min; and `CC1(C)CC(=O)c2c(C(F)(F)F)nn(-c3ccc(C(N)=O)c(NC4CCC(OC(=O)CN)CC4)c3)c2C1` (configuration not stated), with 1.57 min. Compound `COc1ccc(S(=O)(=O)Nc2cc(Cl)cc(Cl)c2OC)cc1N1CCNCC1` displayed a half-life greater than 120 min. With `CCOc1cc(NC(C)=O)ccc1C(=O)OC` the figure was 6.75 min. On to `COc1ccc(-n2nc(CCC(=O)N(C)O)cc2-c2ccc(Cl)cc2)cc1`, for which the half-life was found to be 39.1 min.

`Cn1nc(C(C)(C)C)cc1C(=O)NC(Cc1cccc(Cl)c1)C(=O)NCC#N` (configuration not stated): the half-life is 67.4 min. With `Cc1onc(-c2ccccc2)c1-c1ccc(S(N)(=O)=O)cc1` the figure was greater than 120 min; with `Cc1cccc(N(C)C(=S)Oc2ccc3ccccc3c2)c1`, 2.99 min; with `CC(C)(C)NC[C@H](O)c1cc(O)cc(O)c1`, greater than 120 min. Then `O=C1c2ccccc2C(=O)C1C(=O)C(c1ccccc1)c1ccccc1`, with greater than 120 min; and `COc1ccc(C(=O)Oc2ccc(C(c3c(C)[nH][nH]c3=O)c3c(C)[nH][nH]c3=O)cc2)cc1`, with 1.55 min; and `Cc1ccc(C)c(N2CCN(CCCNC(=O)c3ccc4nc(C(C)C)oc4c3)CC2)c1`, with 13.8 min. Then `CNS(=O)(=O)CCc1ccc2[nH]cc(C3CCN(C)CC3)c2c1`, with greater than 120 min; and `Cc1ccc(S(=O)(=O)Nc2nc3n(n2)C(c2ccc(F)cc2)C=C(c2ccccc2)N3)cc1` (configuration not stated), with greater than 120 min; and `COc1ccccc1N1CCNCC1`, with greater than 120 min. In turn, `NC(=O)c1ccccc1Nc1ccnc(Nc2cccc(O)c2)n1` returned a half-life of 21.8 min. Then `CCc1ccc(C(=O)C(C)CN2CCCCC2)cc1` (configuration not stated), with 4.87 min; and `COc1cc(C)c(/C=C/C(C)=C/C=C/C(C)=C/C(=O)O)c(C)c1C`, with 32 min; and `CCN1CCN(C(=O)Cc2ccc(Nc3ncc(F)c(Nc4ccc(C(=O)Nc5ccccc5Cl)cc4)n3)cc2)CC1`, with 4.23 min. `O=C(NCc1ccc(OC(F)(F)F)cc1)C1c2c(F)cccc2C(=O)N1CCc1ccccn1` (configuration not stated) gave a half-life of 6.61 min. Then `O=C(NOCC1CC1)c1ccc(F)c(F)c1Nc1ccc(I)cc1Cl`, with 11.2 min; and `COc1ccc(CC(=O)Nc2c(C(=O)N3CCN(c4ccccc4F)CC3)oc3ccccc23)cc1OC`, with 5.26 min; and `CC[C@@H](C)Nc1cc(C(=O)NC2CC3CC[C@@H](C2)N3c2ccc(C(=O)C3CC3)cn2)c(C)cc1C(N)=O` (some centres not stated), with greater than 120 min. With `CNc1ccc2oc(C[C@H]3O[C@@]4(CC[C@H]3C)O[C@H](C(C)C(=O)c3ccc[nH]3)[C@H](C)C[C@H]4C)nc2c1C(=O)O` (some centres not stated) the figure was greater than 120 min. As for `CCC(=O)c1ccc2c(c1)N(CCCN(C)C)c1ccccc1S2`, the half-life came out at 15.4 min. Then `CCCn1cc2c(nc(NC(=O)Nc3ccc(OC)cc3)n3nc(-c4ccco4)nc23)n1`, with greater than 120 min; and `CCOP(=S)(OCC)O/N=C(\C#N)c1ccccc1`, with 8.67 min; and `CCOc1ccc(CNC(=O)Cn2c(=O)c3cccn3c3ccc(F)cc32)cc1OC`, with 80.7 min.

Consider `CC1=NOC2(CCN(Cc3ccc(C#N)cc3)C2)C1` (configuration not stated), for which the half-life was greater than 120 min.

`Cc1cc(C)c(/C=C2\C(=O)Nc3ccccc32)[nH]1` came in with a half-life of 11 min.

Compound `NC1(c2ccc(-c3nc4ccn5c(=O)[nH]nc5c4cc3-c3ccccc3)cc2)CCC1` displayed a half-life of 83 min. With `CCOc1ccc(S(=O)(=O)N2CCCCCC2)c2ccccc12` the figure was 6.52 min; with `N#Cc1cn([C@@H]2O[C@H](CO)[C@H](O)[C@@H]2O)c2ncnc(N)c12`, greater than 120 min.

The compound `C[C@@H]1C[C@H]2[C@@H]3CCC4=CC(=O)C=C[C@]4(C)[C@@]3(F)[C@@H](O)C[C@]2(C)[C@H]1C(=O)CO` displayed a half-life of 57.3 min. With `CCc1cccc(CC)c1NC(=O)N1Cc2[nH]nc(NC(=O)c3ccc(N4CCN(C)CC4)cc3)c2C1` the figure was greater than 120 min; with `CCOP(=S)(OCC)Oc1ccc2c(C)c(Cl)c(=O)oc2c1`, 5.07 min; with `CN1c2cc(C(=O)Nc3ccc(C#N)cc3)ccc2C(=O)N2CCCCC21` (configuration not stated), 44.3 min. With `COc1ccc(OCC(=O)Nc2cc(-c3nc4ccccc4s3)ccc2C)cc1` the figure was 3.38 min; with `CCOc1cc(CNC(=O)c2ccc(C)c(NC(=O)c3nsc4ccccc34)c2)ccc1OC`, 7.12 min; with `CCn1c(C(=O)NCc2ccccc2Cl)cc2sc(Cl)cc21`, 7.52 min. Compound `COc1ccc(NC(=O)Cn2ccn(-c3ccc(C)c(C)c3)c(=O)c2=O)cc1Cl` displayed a half-life greater than 120 min. On to `COc1cc(C(=O)NC2CCCNC2)cc(OC)c1OC` (configuration not stated), for which the half-life is greater than 120 min. Then `Cc1csc(NC(=O)c2ccc(COc3cccc(Cl)c3)o2)n1`, with 14.9 min; and `COc1ccc(-n2nc(C3CCCN(CC4CCCCC4)C3)[nH]c2=O)cc1` (configuration not stated), with 108 min; and `CCC(C(=O)O)c1ccc(N2Cc3ccccc3C2=O)cc1` (configuration not stated), with greater than 120 min. With `CN1C(=O)COc2c(C(=O)NC3CN4CCC3CC4)cc(Cl)cc21` (configuration not stated) the figure was greater than 120 min; with `CCOc1ncc(S(=O)(=O)N2CCN(CC)CC2)cc1-c1nc2c(CC)n(CCOC)nc2c(=O)[nH]1`, 76.2 min.

With `C/C=C(/C(=C/C)c1ccc(OC(C)=O)cc1)c1ccc(OC(C)=O)cc1`, the half-life was greater than 120 min.

With `Cc1cc(O)c2c(c1)C(=O)c1cccc(O)c1C2=O`, the half-life amounted to 1.86 min. Then `COCC(=O)Nc1c(I)c(C(=O)NCC(O)CO)c(I)c(C(=O)N(C)CC(O)CO)c1I` (configuration not stated), with 84.2 min. `CCCC(C)(COC(N)=O)COC(=O)NC(C)C` (configuration not stated) showed a half-life greater than 120 min. As to `COc1nccc(-c2c(-c3ccc(F)cc3)ncn2C2CCNCC2)n1`, the half-life was greater than 120 min.

In the case of `Cc1cc(C(C)Nc2ccccc2)c2nc(N3CCOCC3)cc(=O)n2c1` (configuration not stated), the half-life came to 17.2 min.

With `CC(=O)N1CCN(C(=O)Cc2ccc(Nc3ncc(F)c(Nc4ccc(C(=O)Nc5ccccc5Cl)cc4)n3)cc2)CC1`, the half-life was found to be 15.6 min. With `CN(C)c1cc2c(cc1Sc1nc3c(N)nccc3n1CCNCC(C)(C)C)OCO2` the figure was 3.18 min; with `CCN(CC)Cc1cccc(/C=C/c2nc3ccc(F)cc3c(=O)n2-c2ccccc2Cl)n1`, 25.8 min; with `CNC(=O)[C@H](Cc1ccccc1)NC(=O)[C@H](CC(C)C)[C@H](CSc1cccs1)C(=O)NO`, 110 min.

On to `O=C1CN2CCOC2(c2ccccc2Cl)c2cc(Cl)ccc2N1` (configuration not stated), for which the half-life amounted to 4.56 min.

Regarding `NC(=Nc1ccc(CCNCc2cccc(Cl)c2)cc1)c1cccs1`, the half-life is greater than 120 min. `CCOc1ccc(-n2c([C@@H](C)N(Cc3cccnc3)C(=O)Cc3ccc(OC(F)(F)F)cc3)nc3ncccc3c2=O)cc1` had a half-life of 8.23 min. Compound `CCCCS(=O)(=O)N[C@@H](Cc1ccc(OCCCCC2CCNCC2)cc1)C(=O)O` gave a half-life greater than 120 min. With `O=C(O)CCCc1ccccc1` the figure was greater than 120 min; with `O=C1c2ccccc2S(=O)(=O)N1CCCCN1CCN(c2ncccn2)CC1`, 24.5 min. With `Cn1c(=O)c2c(ncn2CCO)n(C)c1=O` the figure was greater than 120 min; with `CC(C)c1nn(-c2c(Cl)cccc2Cl)c2nc(Cc3ccc(OCCO)cc3)[nH]c(=O)c12`, 32.2 min.

On to `COc1ccc(-c2oc3cc(OC)ccc3c2C(=O)c2ccc(C#N)cc2)cc1`, for which the half-life is 20.6 min.

For `NCCc1ccc(O)cc1`, the half-life was greater than 120 min. With `CC1(C)OC[C@H](NC(=O)Nc2ccc(Br)cc2Br)[C@H](c2ccccc2)O1` the figure was 1 min; with `CCN(CC)CCCN(c1ccccc1)C1Cc2ccccc2C1`, 11.5 min. With `COC(=O)c1cc(S(N)(=O)=O)ccc1OC` the figure was 43.2 min.
